Laboratory results taken from patent publication US9011880B2, “Compounds and methods for treating cancer” (IGF Oncology, LLC, priority 2003, dated 2015).
Where two headings read alike, the source gives them in different places.

How the values were obtained:
[1] = IGF-MTX- and MTX-related toxicity in mice (ill effects, body weight); conditions: mice implanted with MCF7-L cells, n = 5/group
Experimental: (§1) MCF7 cells (human breast adenocarcinoma cell line) were grown in Eagle's minimal essential medium supplemented with 0.1 mg/ml insulin and 10% FCS. The estrogen-dependent MCF7-L cell line was a gift from Deepali Sachdev of the University of Minnesota. MCF7-L cells were grown in modified IMEM medium (Invitrogen, Carlsbad, Calif., USA) supplemented with 0.1 mg/ml insulin. LNCaP cells (metastatic human prostatic adenocarcinoma) were grown in RPMI supplemented with glutamine and 10% FCS (Invitrogen, Carlsbad, Calif., USA). Cells were grown at 37° C. in a 5% CO2 humidified atmosphere. In each case, cells were grown to approximately two-thirds confluence, harvested by trypsinization, washed with rich medium and then washed twice with PBS and resuspended in phosphate buffered saline in BD matrigel matrix (Becton Dickinson, Franklin Lakes, N.J., USA). Cells were injected intradermally in mice on the back. An estrogen pellet (0.5 mg estradiol, 60-day release, Innovative Research of America, Sarasota, Fla., USA) was implanted subcutaneously between the shoulder blades two days before implanting MCF7 and MCF7-L cells. MCF7 and MCF7-L cells were implanted in 8-week-old female nu/nu mice. LNCaP cells were implanted in 8-week-old male nu/nu mice. […] MTX was dissolved in PBS. Untreated vehicle controls received 2 mM HCl, 1% glycerol. Drug was administered intravenously by tail-vein injection in a volume of 12.5 μl per gram mouse weight. All studies were approved by the University of Minnesota Animal Care and Use Committee and conformed to relevant ethical guidelines.

[2] = test system: LNCAP tumors; format: in vivo, mouse; conditions: days 0, 4, 8, 18, 22 and 26
Experimental: LNCAP testing. Eight-week old athymic male mice (nu/nu) were injected subcutaneously in the thigh with 1 million LNCAP cells in serum-free medium. Tumors were allowed to grow until they reached an average size of 100 mm^3. […] A fifth group of mice was untreated controls.

[3] = test system: MCF7-L tumors; assay: MCF7-L xenograft tumor growth in nu/nu mice; format: in vivo, mouse; conditions: day 22; IGF-MTX 10 nmol of MTX/g or free MTX 40 nmol/g, tail vein, days 0 and 5
Experimental: as §1, with “Drug was administered intravenously by tail-vein injection in a volume of 12.5 μl per gram mouse weight. All studies were approved by the University of Minnesota Animal Care and Use Committee and conformed to relevant ethical guidelines.” left out

[4] = test system: FSAII tumors; assay: FSAII tumor growth in vivo in mice; set-up: species or system mouse; conditions: intraperitoneally, days 0, 2 and 5
Experimental: FSAII testing. Six-week old female mice were injected subcutaneously in the thigh with 200,000 FSAII cells each in serum-free medium. Tumors were allowed to grow until they reached an average volume of 100 mm^3 (calculated as length×breadth^2). At that time, treatment was initiated. […] A fifth group of mice was untreated controls. Each group contained five mice. Mice were treated on days 0, 2, and 5. Tumor growth was measured every second day.

[5] = test system: breast cancer cells; conditions: cells incubated with insulin; cited from earlier work
[6] = humans, cited from earlier work
[7] = test system: MCF7 tumors; assay: MCF7 xenograft tumor growth in nu/nu mice; format: in vivo, mouse; conditions: 40 nmol/g intravenous, days 0, 4 and 8; 12 days of observation
Experimental: as §1
Three in vivo studies were performed to assess the targeting of MTX with long-R3-IGF-1. In the initial preliminary study, breast cancer MCF7 cells were implanted intradermally in the backs of nude mice.

[8] = test system: LNCAP cells; assay: In vitro proliferation assay, LNCaP (Example 8); format: cell-based, human
Experimental: LNCaP, MCF7 and MCF7-L cell lines were plated, respectively, in a 96-well plate at 5,000 cells per well in RPMI+glutamine+10% FCS medium in 100 μl. After 24 hours, 100 μl fresh medium was added containing no drug (control), IGF-MTX or MTX at the indicated concentration.

[9] = test system: mouse fibrosarcoma cell line FSAII; assay: In vitro growth inhibition of FSAII cells (cell-counting kit-8); format: cell-based; conditions: minimal medium, 2 nM to 2 μM, 72 hours
Experimental: In vitro growth inhibition. […] The cells were grown in a 5% CO2 atmosphere at 37° C. in 100 cm^2 plastic tissue culture dishes (20 ml medium). Cells were passed every 4-6 days and seeded at 2×10^6 cells per plate. Cells were harvested by washing once in Hank's balanced salt solution, and then digesting with 3 ml of trypsin-EDTA for 3-10 minutes until cells had detached. Trypsinization was stopped by adding rich medium. The harvested cells were washed by centrifugation and resuspended in rich medium, and then plated in a 96-well plate at 12,000 cells per well in rich medium. Plates were incubated in the rich medium 16 hours and then transferred to minimal medium (100 μl/well), which lacked serum and thus lacked insulin and IGF and other growth factors. Minimal medium was RPMI supplemented with 10 μg/ml transferrin (iron-loaded) and 200 μg/ml bovine serum albumin. […] Each condition was tested in triplicate. After 72 hours incubation at 37° C., cell proliferation was assayed by the cell-counting kit-8, based on tetrazolium dye reduction, similar to the MTT assay (Dojindo Molecular Technologies, Gaithersburg, Md.).

[10] = test system: LNCAP cells; assay: LNCAP proliferation in vitro (Example 5, cell counting kit-8)
Experimental: LNCAP cells were plated in a 96-well plate at 3,000 cells per well in RPMI medium supplemented with 10% fetal bovine serum (FBS). After incubation overnight, the medium in the wells was replaced with 100 μl per well of RPMI supplemented with 0.1% FBS. […] After incubation for 4 days, cell proliferation was assayed with the cell counting kit-8 (Dojindo Molecular Technologies, Gaithersburg, Md.).

[11] = test system: breast cancer cells; conditions: administered with insulin; cited from earlier work
[12] = low dose 15 μmoles/kg methotrexate

CN(Cc1cnc2nc(N)nc(N)c2n1)c1ccc(C(=O)N[C@@H](CCC(=O)O)C(=O)O)cc1 [methotrexate]
Average weight of mice, Day 4 [1]: 19.5 g
Average weight of mice, Day 20 [1]: 20.8 g
Average weight of mice, Day 0 ([1]; measured immediately before treatment): 19.2 g
effect on LNCAP tumor growth ([2]; high dose 40 μmoles/kg methotrexate): appeared to have no effect
effect on LNCAP tumor growth [2, 12]: appeared to have no effect
MCF7-L tumor growth inhibition [3]: inhibited about equally
effect on FSAII tumor growth ([4]; high dose 60 μmoles/kg methotrexate): Neither the high or low dose of methotrexate had any apparent effect
effect on FSAII tumor growth [4, 12]: Neither the high or low dose of methotrexate had any apparent effect
stimulation of uptake [5]: 50%
maximum safe dosage ([6]; cumulative per 3 weeks): about 500 micromoles per meter squared per 3 weeks
minimum effective dosage ([6]; lowest dosage usually used): about 130 micromoles per meter squared per 3 weeks
MCF7 tumor growth [7]: tumors continued to grow
inhibition of proliferation at highest tested concentration ([8]; 2000 nM): significantly greater inhibition than IGF-MTX
inhibition of proliferation compared to untreated control cells ([8]; LNCaP): inhibited proliferation of LNCaP cells
IC50 ([8]; free MTX, LNCaP, RPMI + 10% FCS, 48 hours with drug, IGF-MTX as concentration of MTX groups): ~400 nM
inhibition of FSAII proliferation [9]: inhibited FSAII proliferation
Cell number (relative units) ([10]; Minimal med. (0.1% FBS), MTX conc. 2 nM): .653 ± .046 relative units
Cell number (relative units) ([10]; Minimal med. (0.1% FBS), MTX conc. 8 nM): .737 ± .043 relative units
Cell number (relative units) ([10]; Minimal med. (0.1% FBS), MTX conc. 32 nM): .994 ± .226 relative units
Cell number (relative units) ([10]; Minimal med. (0.1% FBS), MTX conc. 125 nM): .835 ± .048 relative units
Cell number (relative units) ([10]; Minimal med. (0.1% FBS), MTX conc. 500 nM): .706 ± .051 relative units
Cell number (relative units) ([10]; Minimal med. (0.1% FBS), MTX conc. 2000 nM): 0.418 ± .026 relative units
Cell number (relative units) ([10]; Rich medium (10% FBS), MTX conc. 2 nM): 0.724 ± .015 relative units
Cell number (relative units) ([10]; Rich medium (10% FBS), MTX conc. 8 nM): 0.596 ± .071 relative units
Cell number (relative units) ([10]; Rich medium (10% FBS), MTX conc. 32 nM): 1.017 ± .033 relative units
Cell number (relative units) ([10]; Rich medium (10% FBS), MTX conc. 125 nM): 0.223 ± .012 relative units
Cell number (relative units) ([10]; Rich medium (10% FBS), MTX conc. 500 nM): 0.163 ± .009 relative units
minimal inhibitory concentration ([10]; minimal medium containing 0.1% serum): about 2000 nM
minimal inhibitory concentration ([10]; rich medium containing 10% serum): about 125 nM
factor of lower methotrexate concentration for the same percent cell killing than methotrexate alone [11]: 10^4
